Experiments:
[1] = Metabolic stability and intrinsic clearance in human liver microsomes (MICS); format: in vitro ADME; conditions: human, microsomes, pH 7.4
How it was run: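 Test compound (1 μM final) incubated at 37° C with liver microsomes (0.5 mg/mL protein) in 100 mM phosphate buffer pH 7.4, with 1 mM NADPH or without cofactor; sampled at 0.5–60 min, quenched with cold acetonitrile. Parent remaining quantified by LC-MS/MS; t1/2 from ln-% remaining slope converted to CLint (μL/min/mg protein).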

PI3Kα E545K [2] = target: T1, PI3Kα E545K (Homo sapiens, UniProt P42336, E545K); experiment: PI3Kα E545K mutant in vitro cell based assay, MCF-7 cells; conditions: MCF-7 cell line, 0% FBS, 3 hours treatment
Source text: PI3K-Alpha Kinase (PI3Kα) Activity: Wild-Type PI3Kα, H1047R Mutant PI3Kα, and E545K Mutant PI3Kα In Vitro Cell Based Assays and Determination of IC50 Values for Inhibitors
The MDA-MB-453 (ATCC-HTB-131) cell line (PI3Kα H1047R) and MCF-7 (ATCC-HTB-22) cell line (PI3Kα E545K), MDA-MB-361 (ATCC-HTB-27) cell line (PI3Kα E545K), and SKBR3 (ATCC-HTB-30) cell line (wild type PI3Kα) were obtained from the American Type Culture Collection (Manassas, VA). MDA-MB-453 cells were maintained in Dulbecco's Modified Eagle Media (DMEM, Gibco 12430) supplemented with 10% Fetal Bovine Serum, heat inactivated (FBS HI, Gibco 10082), 1× non-essential amino acids (NEAA, Gibco 11140), 1 mM sodium pyruvate (Gibco 11360) and 1× Anti-Anti (Gibco 15240). MCF-7 cells were maintained in Minimum Essential Media (MEM) (Gibco 11095) supplemented with 10% Fetal Bovine Serum, heat inactivated (FBS HI, Gibco 10082), 1× non-essential amino acids (NEAA, Gibco 11140), 1 mM sodium pyruvate (Gibco 11360), 1× Anti-Anti (Gibco 15240) and 10 μg/mL human insulin (Sigma I 9278). MDA-MB-361 cells were maintained in Dulbecco's Modified Eagle Media (DMEM, Gibco 12430) supplemented with 20% Fetal Bovine Serum, heat inactivated (FBS HI, Gibco 10082), 1× non-essential amino acids (NEAA, Gibco 11140), 1 mM sodium pyruvate (Gibco 11360) and 1× Anti-Anti (Gibco 15240). SKBR3 cells were maintained in McCoy's 5A (Gibco 16600) supplemented with 10% Fetal Bovine Serum, heat inactivated (FBS HI, Gibco 10082), and 1× Anti-Anti (Gibco 15240). Cultures were maintained in a humidified incubator at 37° C. under 5% CO2/95% air.
For compound testing in 0% FBS, MDA-MB-453, MCF-7 and SKBR3 cells were seeded at a density of 1.5×10^4, 1.0×10^4, and 1.0×10^4 cells, respectively, per well in white 384-well plates in 20 μl of Minimum Essential Media (MEM) assay media with 1×NEAA, 1 mM sodium pyruvate, and 1 μg/mL human insulin (Sigma 19278) (Assay Medium); while MDA-MB-361 cells were seeded at a density of 1.5×10^4 per well in white 384-well plates in 20 μl Assay Medium without insulin. After plating, cells were allowed to attach overnight. Compounds dissolved in 10 mM stock solutions in DMSO were serially diluted 1:3 in DMSO to generate a 10-point dilution series and plated using an acoustic liquid handler system (Echo 550 Series Liquid Handler, Labcyte). A 5× intermediate compound dilution plate in MEM with 1×NEAA and 1 mM sodium pyruvate (150 μM starting compound concentration in 1.5% DMSO) was then prepared. Five μl of the intermediate serially diluted compounds were added to the cell plate to final concentrations ranging from […] in 0.3% DMSO. 0.3% DMSO alone was used to establish the maximum (MAX) signal and GDC-0032 at a final concentration of 1 μM was used as a reference compound for the minimum (MIN) signal. After 3 hours treatment, the medium was removed, and the cells were lysed in 10 μL of 1× SureFire Lysis buffer with shaking for 10 minutes at room temperature. The Acceptor Mix (Reaction Buffer 1+Reaction Buffer 2+Activation Buffer+SureFire Ultra Acceptor Beads) was prepared by diluting Activation buffer 25-fold in combined Reaction Buffer 1 and Reaction Buffer 2.
The Acceptor beads were diluted 50-fold in the combined Reaction Buffers. Five μL of Acceptor Mix was added to each well, the plate was sealed and covered with foil and incubated for 1 hour at room temperature. The Donor Mix (dilution buffer+SureFire Ultra Donor Beads) was prepared by diluting Donor Beads 50-fold in dilution buffer. Five μL of the Donor Mix was added to each well and the plate sealed and covered with foil and incubated for 1-2 hours at room temperature in the dark. The plates were read on a Neo2 plate reader instrument from Biotek using standard AlphaLisa settings.
Compounds were tested in duplicate and the % inhibition at each compound concentration was used to generate two dose response curves. One IC50 was generated using average % inhibition at each compound concentration. […]

PI3Kα E545K [3] = target: T1, PI3Kα E545K; experiment: PI3Kα E545K mutant in vitro cell based assay, MDA-MB-361 cells; set-up: MDA-MB-361 (ATCC-HTB-27) cell line (PI3Kα E545K); host or cells: MDA-MB-361; conditions: MDA-MB-361 cell line, 0% FBS, no insulin, 3 hours treatment
How it was run: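 MDA-MB-361 cells (PI3Kα E545K) seeded in serum-free MEM assay medium without insulin, attached overnight, then treated 3 h with compound (10-point 1:3 series, 0.3% DMSO). AlphaLISA SureFire readout of lysates. IC50 by 4-parameter fit, normalized to DMSO (max) and 1 μM GDC-0032 (min).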

T1 sequence (P42336 whole entry E545K): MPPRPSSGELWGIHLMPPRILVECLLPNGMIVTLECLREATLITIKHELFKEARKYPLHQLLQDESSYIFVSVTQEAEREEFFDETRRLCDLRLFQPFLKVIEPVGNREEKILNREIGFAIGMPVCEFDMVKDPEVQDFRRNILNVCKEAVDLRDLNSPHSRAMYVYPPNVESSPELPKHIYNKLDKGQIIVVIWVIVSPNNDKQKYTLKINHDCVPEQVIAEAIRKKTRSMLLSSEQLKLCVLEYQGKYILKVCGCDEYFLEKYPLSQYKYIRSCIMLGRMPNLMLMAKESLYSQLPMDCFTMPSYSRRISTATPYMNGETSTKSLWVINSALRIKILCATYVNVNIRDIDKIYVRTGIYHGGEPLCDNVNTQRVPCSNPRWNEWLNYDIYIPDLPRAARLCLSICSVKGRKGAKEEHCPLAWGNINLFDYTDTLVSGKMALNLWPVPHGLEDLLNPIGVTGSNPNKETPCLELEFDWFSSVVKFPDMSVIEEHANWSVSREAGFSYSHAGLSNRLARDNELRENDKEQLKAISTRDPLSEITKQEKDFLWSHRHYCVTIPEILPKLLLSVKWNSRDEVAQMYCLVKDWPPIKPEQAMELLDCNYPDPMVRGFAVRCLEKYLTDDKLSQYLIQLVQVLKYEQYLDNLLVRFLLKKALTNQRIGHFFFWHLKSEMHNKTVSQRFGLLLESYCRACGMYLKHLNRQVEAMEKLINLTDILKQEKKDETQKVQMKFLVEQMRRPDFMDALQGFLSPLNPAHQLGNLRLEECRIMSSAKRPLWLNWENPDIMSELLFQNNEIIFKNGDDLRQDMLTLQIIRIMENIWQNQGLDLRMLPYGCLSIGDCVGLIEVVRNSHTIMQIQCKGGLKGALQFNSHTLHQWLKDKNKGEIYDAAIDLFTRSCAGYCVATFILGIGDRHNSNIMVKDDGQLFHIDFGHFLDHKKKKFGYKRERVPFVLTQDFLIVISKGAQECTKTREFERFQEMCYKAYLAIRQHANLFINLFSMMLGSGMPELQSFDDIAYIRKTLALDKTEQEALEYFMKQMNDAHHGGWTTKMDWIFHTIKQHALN
T1 sequence (P27986 whole entry partner): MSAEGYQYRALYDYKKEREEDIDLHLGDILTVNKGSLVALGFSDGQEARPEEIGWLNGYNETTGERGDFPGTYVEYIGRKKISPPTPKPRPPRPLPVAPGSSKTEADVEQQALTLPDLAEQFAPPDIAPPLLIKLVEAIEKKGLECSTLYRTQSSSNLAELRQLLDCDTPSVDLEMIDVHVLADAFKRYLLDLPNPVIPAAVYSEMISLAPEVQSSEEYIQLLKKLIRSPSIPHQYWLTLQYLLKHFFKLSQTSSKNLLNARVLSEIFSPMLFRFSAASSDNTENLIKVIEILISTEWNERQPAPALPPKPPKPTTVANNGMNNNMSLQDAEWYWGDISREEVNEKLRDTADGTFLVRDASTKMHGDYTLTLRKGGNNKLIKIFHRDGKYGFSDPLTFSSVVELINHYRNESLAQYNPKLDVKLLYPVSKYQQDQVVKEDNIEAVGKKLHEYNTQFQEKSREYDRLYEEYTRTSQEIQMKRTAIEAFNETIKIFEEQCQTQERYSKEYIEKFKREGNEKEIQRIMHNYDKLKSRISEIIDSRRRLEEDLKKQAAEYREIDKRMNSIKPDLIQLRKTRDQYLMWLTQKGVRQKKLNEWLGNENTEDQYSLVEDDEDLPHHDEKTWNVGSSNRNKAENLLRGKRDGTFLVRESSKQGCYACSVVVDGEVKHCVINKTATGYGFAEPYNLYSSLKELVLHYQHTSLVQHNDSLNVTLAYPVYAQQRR

Structure (SMILES) | microsomal CLint at 1 μM [1] | IC50 (PI3Kα E545K [2]) | IC50 (PI3Kα E545K [3])
Cc1cc([C@@H](C)Oc2ccc(Cl)nc2C(N)=O)c2oc(-c3ccc4nn([C@H]5C[C@@H](O)C5)cc4c3)c(C)c(=O)c2c1 [Example 133C, 6-Chloro-3-[(1R)-1-[2-[2-(3-hydroxycyclobutyl)indazol-5-yl]-3,6-dimethyl-4-oxo-chromen-8-yl]ethoxy]pyridine-2-carboxamide] |  | < 500 nM | < 500 nM
Cc1cc([C@@H](C)Oc2ccc(F)nc2S(N)(=O)=O)c2oc(C3CC3)c(C)c(=O)c2c1 [Example 109C, 3-[(1R)-1-(2-Cyclopropyl-3,6-dimethyl-4-oxo-chromen-8-yl)ethoxy]-6-fluoro-pyridine-2-sulfonamide] | < 50 µL/min/mg | < 500 nM | 
Cc1cc([C@@H](C)Oc2ccc(Cl)nc2C(N)=O)c2oc(-c3ccc4nc(CCO)sc4c3)c(C)c(=O)c2c1 [Example 132C, 6-Chloro-3-[(1R)-1-[2-[2-(2-hydroxyethyl)-1,3-benzothiazol-6-yl]-3,6-dimethyl-4-oxo-chromen-8-yl]ethoxy]pyridine-2-carboxamide] |  | < 500 nM | < 500 nM
Cc1cc([C@@H](C)Oc2ccc(Cl)cc2S(N)(=O)=O)c2oc(-c3ccccc3)c(C)c(=O)c2c1 [Example 98C, 5-Chloro-2-[(1R)-1-(3,6-dimethyl-4-oxo-2-phenyl-chromen-8-yl)ethoxy]benzenesulfonamide] |  | < 500 nM | < 500 nM
Cc1cc([C@@H](C)Oc2ccc(F)c(F)c2C(N)=O)c2oc(-c3ccc4nn(C)cc4c3)c(C)c(=O)c2c1 [Example 17A, 6-[(1R)-1-[3,6-Dimethyl-2-(2-methylindazol-5-yl)-4-oxo-chromen-8-yl]ethoxy]-2,3-difluoro-benzamide] |  | < 500 nM | < 500 nM
Cc1cc([C@@H](C)Oc2ccc(Cl)nc2C(N)=O)c2oc(-c3ccc4nn(C)cc4c3F)c(C)c(=O)c2c1 [Example 46C, 6-Chloro-3-[(1R)-1-[2-(4-fluoro-2-methyl-indazol-5-yl)-3,6-dimethyl-4-oxo-chromen-8-yl]ethoxy]pyridine-2-carboxamide] | < 50 µL/min/mg | < 500 nM | 
Cc1cc([C@@H](C)Oc2ccc(F)cc2S(N)(=O)=O)c2oc(C3CC3)c(C)c(=O)c2c1 [Example 107C, 2-[(1R)-1-(2-Cyclopropyl-3,6-dimethyl-4-oxo-chromen-8-yl)ethoxy]-5-fluoro-benzenesulfonamide] |  | < 500 nM | < 500 nM

More lines, now with the values ahead:

microsomal CLint at 1 μM [1] | IC50 (PI3Kα E545K [2]) | IC50 (PI3Kα E545K [3]) | Structure (SMILES)
< 50 µL/min/mg | < 500 nM |  | Cc1cc([C@@H](C)Oc2ccc(Cl)nc2C(N)=O)c2oc(-c3cncc(F)c3)c(C)c(=O)c2c1 [Example 20A, 6-Chloro-3-[(1R)-1-[2-(5-fluoro-3-pyridyl)-3,6-dimethyl-4-oxo-chromen-8-yl]ethoxy]pyridine-2-carboxamide]
< 50 µL/min/mg | < 500 nM |  | Cc1cc([C@@H](C)Oc2ccc(Cl)nc2C(N)=O)c2oc(-c3ccc4nn(C)cc4n3)c(C)c(=O)c2c1 [Example 141A, 6-Chloro-3-[(1R)-1-[3,6-dimethyl-2-(2-methylpyrazolo[4,3-b]pyridin-5-yl)-4-oxo-chromen-8-yl]ethoxy]pyridine-2-carboxamide]
< 50 µL/min/mg | < 500 nM | < 500 nM | Cc1cc([C@@H](C)Oc2ccc(Cl)nc2C(N)=O)c2oc(-c3ccc4nn(C(F)F)cc4c3)c(C)c(=O)c2c1 [Example 66A, 6-Chloro-3-[(1R)-1-[2-[2-(difluoromethyl)indazol-5-yl]-3,6-dimethyl-4-oxo-chromen-8-yl]ethoxy]pyridine-2-carboxamide]
< 50 µL/min/mg | < 500 nM |  | CONC(=O)c1ncccc1O[C@H](C)c1cc(C)cc2c(=O)c(C)c(-c3ccc4nn(C)cc4c3)oc12 [Example 23A, 3-[(1R)-1-[3,6-Dimethyl-2-(2-methylindazol-5-yl)-4-oxo-chromen-8-yl]ethoxy]-N-methoxy-pyridine-2-carboxamide]
< 50 µL/min/mg | < 500 nM | < 500 nM | Cc1cc([C@@H](C)Oc2ccc(Cl)nc2S(N)(=O)=O)c2oc(-c3cnn(CCC(F)F)c3)c(C)c(=O)c2c1 [Example 119C, 6-Chloro-3-[(1R)-1-[2-[1-(3,3-difluoropropyl)pyrazol-4-yl]-3,6-dimethyl-4-oxo-chromen-8-yl]ethoxy]pyridine-2-sulfonamide]
< 50 µL/min/mg | < 500 nM | < 500 nM | CONC(=O)c1nc(Cl)ccc1O[C@H](C)c1cc(C)cc2c(=O)c(C)c(-c3ccc4nn(C)cc4c3)oc12 [Example 26A, 6-Chloro-3-[(1R)-1-[3,6-dimethyl-2-(2-methylindazol-5-yl)-4-oxo-chromen-8-yl]ethoxy]-N-methoxy-pyridine-2-carboxamide]
 | < 500 nM | < 500 nM | Cc1cc([C@@H](C)Oc2cccnc2C(=O)NOCC2CC2)c2oc(-c3ccc4nn(C)cc4c3)c(C)c(=O)c2c1 [Example 25A, N-(Cyclopropylmethoxy)-3-[(1R)-1-[3,6-dimethyl-2-(2-methylindazol-5-yl)-4-oxo-chromen-8-yl]ethoxy]pyridine-2-carboxamide]
 | < 500 nM | < 500 nM | Cc1cc([C@@H](C)Oc2ccc(Cl)nc2C(N)=O)c2oc(-c3ccc4nn(CCO)cc4c3)c(C)c(=O)c2c1 [Example 129C, 6-Chloro-3-[(1R)-1-[2-[2-(2-hydroxyethyl)indazol-5-yl]-3,6-dimethyl-4-oxo-chromen-8-yl]ethoxy]pyridine-2-carboxamide]
 | < 500 nM | < 500 nM | Cc1cc([C@@H](C)Oc2ccc(Cl)nc2S(N)(=O)=O)c2oc(C3CC3CO)c(C)c(=O)c2c1 (single isomer, unassigned) [Example 126C]
< 50 µL/min/mg | < 500 nM |  | Cc1cc([C@@H](C)Oc2ccc(Cl)nc2C(N)=O)c2oc(-c3cc4cn(C)nc4cn3)c(C)c(=O)c2c1 [Example 128A, 6-Chloro-3-[(1R)-1-[3,6-dimethyl-2-(2-methylpyrazolo[3,4-c]pyridin-5-yl)-4-oxo-chromen-8-yl]ethoxy]pyridine-2-carboxamide]
< 50 µL/min/mg | < 500 nM |  | Cc1cc([C@@H](C)Oc2ccc(Cl)nc2S(N)(=O)=O)c2oc(-c3ccc4nc(C)cn4n3)c(C)c(=O)c2c1 [Example 19C, 6-Chloro-3-[(1R)-1-[3,6-dimethyl-2-(2-methylimidazo[1,2-b]pyridazin-6-yl)-4-oxo-chromen-8-yl]ethoxy]pyridine-2-sulfonamide]

Reference: patent US20240182460A1, “ALLOSTERIC CHROMENONE INHIBITORS OF PHOSPHOINOSITIDE 3-KINASE (PI3K) FOR THE TREATMENT OF DISEASE” (PETRA PHARMA CORPORATION, priority 2022, published 2024)
